Test results published in patent publication US7745465B2, “Method of enhancing cellular production of molecular chaperone, hydroxylamine derivatives useful for enhancing the chaperone production and the preparation thereof” (CytRx Corporation, priority 1995, dated 2010).

How the values were obtained:
HSP-70 = experiment: Myocardial HSP-70 protein content in isolated rat hearts (Western blot)
Description: In separate experiments the effects of heat stress, ischemia, N-[2-hydroxy-3-(1-piperidinyl)propoxy]-3-pyridine carboximidoyl chloride maleate and their combination were studied on myocardial HSP-70 protein content. Isolated hearts were subjected to 15 min. heat-stress (42° C.), global normothermic ischemia, and N-[2-hydroxy-3-[…](1-piperidinyl)propoxy]-3-pyridine carboximidoyl chloride maleate perfusion followed by 120 and 180 min. reperfusion, respectively.

[1] = tested on: Streptozotocin-induced diabetic (STZ) rats; experiment: Wound healing of thermal wounds in STZ-diabetic rats; type: in vivo, rat; conditions: 4% containing cream, topical
Description: (ii) Streptozotocin-induced diabetic (STZ) rats with partial-to full thickness thermal wounds created on bilateral thoracic depilated skin by electroheating probe (3 mm of diameter; 60° C.; for 30, 60 and 90 sec.), treated by topical application of 1%, 2% or 4% N-[2-hydroxy-3-(1-piperidinyl)propoxy]-3-piridinecarboximidoyl chloride maleate containing cream or vehicle were used to determine the wound healing in form of self-control, side to side comparison. Wound closure was recorded photographically and using the digital epiluminescence microscopic technique. Wound areas were measured by planimetry 48 h and 21 days after heat injury. Level of hsp72 of skin biopsy samples was determined using Western blot analysis.

[2] = tested on: human skin grafted on severe combined immunodeficiency disease (SCID) mice; experiment: UVB light induced skin injury in human skin grafted SCID mice; type: in vivo, mouse; conditions: 5.0 mg/kg i.p. for 7 days
Description: Human skin tissues were grafted onto immunodeficiency (SCID) mice. The experimental protocol involved a treatment of one group of the mice with N-[2-hydroxy-3-(1-piperidinyl)propoxy]-3-piridinecarboxymidoyl chloride maleate (5.0 mg/kg i.p.) and the other with the solvent NaCl solution (300 μl) for 7 days. On day 8, both groups of mice were exposed to UVB light (100 mJ/cm^2) 24 hours subsequent to the exposure, skin biopsies were taken for histological (sections stained with hematoxylin and eosin), and immunohistological examinations (indirect immunoflourescence technique with monoclonal antibody, mAB).
(i) Human skin transplanted SCID mice treated by N-[2-hydroxy-3-(1-piperidinyl)propoxy]-3-piridinecarboximidoyl chloride maleate (5.0 mg/kg i.p.) or vehicle were exposed to UVB light (100 mJ/cm^2). After 24 h skin biopsies were taken for histological examination and for hsp72 determination using immunohistological and Western blotting techniques.

P 1 = experiment: P1 transcription factor activity in yeast cells; type: cell-based; conditions: minimal medium
Text: It was also investigated if the activity of AP-1 and P 1 transcription factors can be modulated by N-[2-hydroxy-3-(1-piperidinyl)propoxy]-3-piridinecarboximidoyl chloride maleate in yeast cells exposed to various stress conditions.

**Q.** Which results are given for `O=C(O)/C=C\C(=O)O.OC(CON=C(Cl)c1cccnc1)CN1CCCCC1` (stereo not drawn) [N-[2-hydroxy-3-(1-piperidinyl)-propoxy]3-pyridinecarboximidoyl chloride maleate]?
**A.** myocardial HSP-70 content (HSP-70; compound alone): did not increase myocardial HSP-70 content; myocardial HSP-70 content (HSP-70; ischemia in the presence of 20 mg/l): increased to approximately the same level as found after heat stress; wound closure compared to vehicle control [1]: accelerated wound closure; clinical signs of injuries due to UV exposure ([2]; UVB 100 mJ/cm^2, listed as N-[2-hydroxy-3-(1-piperidinyl)propoxy]-3-piridinecarboximidoyl chloride maleate): prevented UVB light induced skin injury; clinical signs of injuries due to UV exposure ([2]; UVB 100 mJ/cm^2, listed as N-[2-hydroxy-3-(1-piperidinyl)propoxy]-3-piridinecarboxymidoyl chloride maleate): clinical signs of injuries due to UV exposure could not be observed; activity of P 1 (P 1): activity decreased
